Results: PubChem BioAssay AID1259411 (Chemical Carcinogenesis Research Information System (CCRIS), 2018)
Calls of active or inactive are those of the source. How the calls were made is not given here.

Test system: rodent carcinogenicity bioassays, tumor incidence
Assay: CCRIS carcinogenicity studies
Method in brief: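 Archive of carcinogenicity, mutagenicity, tumor promotion and tumor inhibition results drawn from journals, NCI reports and other sources, expert-reviewed; covers 1985-2011 and is no longer updated.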

SMILES: Cc1cc(C)c(N)cc1C
- carcinogen call (Species: MOUSE, Strain/Sex: B6C3F1/FEMALE, Route: ORAL, Dose: 0, 50, 100 PPM IN DIET FOR 101 WK (STUDY DURATION: 101 WK), Dose: 0, 50, 100 PPM IN DIET FOR 101 WK (STUDY DURATION: 101 WK), Tumor Site: Type of Lesion: LIVER: HEPATOCELLULAR CARCINOMA): active; positive
- carcinogen call (Species: MOUSE, Strain/Sex: B6C3F1/MALE, Route: ORAL, Dose: 0, 50, 100 PPM IN DIET FOR 101 WK (STUDY DURATION: 101 WK), Dose: 0, 50, 100 PPM IN DIET FOR 101 WK (STUDY DURATION: 101 WK), Tumor Site: Type of Lesion: LIVER: HEPATOCELLULAR CARCINOMA): equivocal
- carcinogen call (Species: RAT, Strain/Sex: F344/FEMALE, Route: ORAL, Dose: 0, 200, 800 PPM IN DIET FOR 101 WK (STUDY DURATION: 101 WK), Dose: 0, 200, 800 PPM IN DIET FOR 101 WK (STUDY DURATION: 101 WK), Tumor Site: Type of Lesion: LUNG: ALVEOLAR/BRONCHIOLAR ADENOMA OR CARCINOMA, LIVER: HEPATOCELLULAR CARCINOMA OR NEOPLASTIC NODULE): active; positive
- carcinogen call (Species: RAT, Strain/Sex: F344/MALE, Route: ORAL, Dose: 0, 200, 800 PPM IN DIET FOR 101 WK (STUDY DURATION: 101 WK), Dose: 0, 200, 800 PPM IN DIET FOR 101 WK (STUDY DURATION: 101 WK), Tumor Site: Type of Lesion: LIVER: BILE DUCT CARCINOMA, HEPATOCELLULAR CARCINOMA OR NEOPLASTIC NODULE): active; positive

SMILES: C=CC1CC=CCC1 (centres undefined)
- carcinogen call (Species: MOUSE, Strain/Sex: B6C3F1/FEMALE, Route: GAVAGE, Dose: 0, 200, 400 MG/KG IN CORN OIL 5 D/WK FOR 103 WK, Dose: 0, 200, 400 MG/KG IN CORN OIL 5 D/WK FOR 103 WK, Tumor Site: Type of Lesion: OVARIES: BENIGN MIXED TUMOR, GRANULOSA CELL TUMOR, GRANULOSA CELL TUMOR OR CARCINOMA): active; positive

SMILES: BrCCBr
- carcinogen call (Species: FISH, Strain/Sex: JAPANESE MEDAKA/MALE,FEMALE, Route: IMMERSION, Dose: 0, 0.133, 6.2, 18.58 MG/L IN WATER FOR UP TO 97 D (STUDY DURATION: 58 WK), Dose: 0, 0.133, 6.2, 18.58 MG/L IN WATER FOR UP TO 97 D (STUDY DURATION: 58 WK), Tumor Site: Type of Lesion: LIVER: HEPATOCELLULAR ADENOMA, HEPATOCELLULAR CARCINOMA, CHOLANGIOMA, CHOLANGIOCELLULAR CARCINOMA, GALL BLADDER: TUMOR): active; positive
- carcinogen call (Species: FISH, Strain/Sex: SHASTA RAINBOW TROUT/MALE, FEMALE, Route: ORAL, Dose: 0, 2000 PPM IN DIET FOR 18 MO (STUDY DURATION: 18 MO), Tumor Site: Type of Lesion: STOMACH: PAPILLOMA): active; positive
- carcinogen call (Species: MOUSE, Strain/Sex: B6C3F1/FEMALE, Route: GAVAGE, Dose: 0, 62, 107 MG/KG, TWA IN CORN OIL (STUDY DURATION: 78-90 WK), Dose: 0, 62, 107 MG/KG, TWA IN CORN OIL (STUDY DURATION: 78-90 WK), Tumor Site: Type of Lesion: LUNG: ALVEOLAR/BRONCHIOLAR ADENOMA, CARCINOMA, STOMACH: SQUAMOUS CELL CARCINOMA): active; positive
- carcinogen call (Species: MOUSE, Strain/Sex: B6C3F1/FEMALE, Route: INHALATION, Dose: 0, 10, 40 PPM 6 HR/D, 5 D/WK FOR 90-103 WK (STUDY DURATION: 91-104 WK), Dose: 0, 10, 40 PPM 6 HR/D, 5 D/WK FOR 90-103 WK (STUDY DURATION: 91-104 WK), Tumor Site: Type of Lesion: INTEGUMENTARY SYSTEM (SUBCUTANEOUS TISSUE OR RIB): FIBROSARCOMA, NASAL CAVITY: CARCINOMA (NOS), CARCINOMA (NOS) OR ADENO): active; positive
- carcinogen call (Species: MOUSE, Strain/Sex: B6C3F1/FEMALE, Route: INHALATION, Dose: 0, 10, 40 PPM 6 HR/D, 5 D/WK FOR 90-103 WK (STUDY DURATION: 91-104 WK), Dose: 0, 10, 40 PPM 6 HR/D, 5 D/WK FOR 90-103 WK (STUDY DURATION: 91-104 WK), Tumor Site: Type of Lesion: NASAL CAVITY: SQUAMOUS CELL PAPILLOMA, CARCINOMA): active; positive
- carcinogen call (Species: MOUSE, Strain/Sex: B6C3F1/MALE, Route: GAVAGE, Dose: 0, 62, 107 MG/KG, TWA IN CORN OIL (STUDY DURATION: 77-78 WK), Dose: 0, 62, 107 MG/KG, TWA IN CORN OIL (STUDY DURATION: 77-78 WK), Tumor Site: Type of Lesion: LUNG: ALVEOLAR/BRONCHIOLAR ADENOMA, STOMACH: SQUAMOUS CELL PAPILLOMA, SQUAMOUS CELL CARCINOMA): active; positive
- carcinogen call (Species: MOUSE, Strain/Sex: B6C3F1/MALE, Route: INHALATION, Dose: 0, 10, 40 PPM 6 HR/D, 5 D/WK FOR 78 WK (STUDY DURATION: 79 WK), Dose: 0, 10, 40 PPM 6 HR/D, 5 D/WK FOR 78 WK (STUDY DURATION: 79 WK), Tumor Site: Type of Lesion: LUNG: ALVEOLAR/BRONCHIOLAR ADENOMA, ALVEOLAR/BRONCHIOLAR CARCINOMA): active; positive
- carcinogen call (Species: MOUSE, Strain/Sex: B6C3F1/MALE, Route: INHALATION, Dose: 0, 10, 40 PPM 6 HR/D, 5 D/WK FOR 90-103 WK (STUDY DURATION: 91-104 WK), Dose: 0, 10, 40 PPM 6 HR/D, 5 D/WK FOR 90-103 WK (STUDY DURATION: 91-104 WK), Tumor Site: Type of Lesion: NASAL CAVITY: SQUAMOUS CELL PAPILLOMA): active; positive
- carcinogen call (Species: RAT, Strain/Sex: F344/FEMALE, Route: INHALATION, Dose: 0, 10, 40 PPM 6 HR/D, 5 D/WK FOR 91-103 WK (STUDY DURATION: 92-104 WK), Dose: 0, 10, 40 PPM 6 HR/D, 5 D/WK FOR 91-103 WK (STUDY DURATION: 92-104 WK), Tumor Site: Type of Lesion: NASAL CAVITY: ADENOMA (NOS), CARCINOMA (NOS), ADENOCARCINOMA (NOS);LUNG: ALVEOLAR/BRONCHIOLAR ADENOMA OR CARCINOMA;SPLEE): active; positive
- carcinogen call (Species: RAT, Strain/Sex: F344/MALE, Route: INHALATION, Dose: 0, 10, 40 PPM 6 HR/D, 5 D/WK FOR 88-103 WK (STUDY DURATION: 89-104 WK), Dose: 0, 10, 40 PPM 6 HR/D, 5 D/WK FOR 88-103 WK (STUDY DURATION: 89-104 WK), Tumor Site: Type of Lesion: NASAL CAVITY: ADENOMA (NOS), ADENOCARCINOMA (NOS), CARCINOMA (NOS), ADENOMATOUS POLYP (NOS), CIRCULATORY SYSTEM: HEMANGI): active; positive
- carcinogen call (Species: RAT, Strain/Sex: OSBORNE-MENDEL/FEMALE, Route: GAVAGE, Dose: 0, 37, 39 MG/KG, TWA IN CORN OIL (STUDY DURATION: 61 WK), Dose: 0, 37, 39 MG/KG, TWA IN CORN OIL (STUDY DURATION: 61 WK), Tumor Site: Type of Lesion: STOMACH: SQUAMOUS CELL CARCINOMA, LIVER: HEPATOCELLULAR CARCINOMA, NEOPLASTIC NODULE): active; positive
- carcinogen call (Species: RAT, Strain/Sex: OSBORNE-MENDEL/MALE, Route: GAVAGE, Dose: 0, 38, 41 MG/KG, TWA IN CORN OIL (STUDY DURATION: 49 WK), Dose: 0, 38, 41 MG/KG, TWA IN CORN OIL (STUDY DURATION: 49 WK), Tumor Site: Type of Lesion: BLOOD VESSELS: HEMANGIOSARCOMA, STOMACH: SQUAMOUS CELL CARCINOMA): active; positive
- carcinogen call (Species: RAT, Strain/Sex: SPRAGUE-DAWLEY/FEMALE, Route: INHALATION, Dose: 20 PPM 7 HR/D, 5 D/WK FOR 18 MO, Tumor Site: Type of Lesion: SPLEEN: HEMANGIOSARCOMA, ADRENAL GLAND: PHEOCHROMOCYTOMA, CORTICAL ADENOMA, CARCINOMA, MAMMARY GLAND: ADENOMA, FIBROADEN, Tumor Site: Type of Lesion: SPLEEN: HEMANGIOSARCOMA, ADRENAL GLAND: PHEOCHROMOCYTOMA, CORTICAL ADENOMA, CARCINOMA, MAMMARY GLAND: ADENOMA, FIBROADEN): active; positive
- carcinogen call (Species: RAT, Strain/Sex: SPRAGUE-DAWLEY/MALE, Route: INHALATION, Dose: 20 PPM 7 HR/D, 5 D/WK FOR 18 MO, Tumor Site: Type of Lesion: SPLEEN: HEMANGIOSARCOMA, ADRENAL GLAND: PHEOCHROMOCYTOMA, CORTICAL ADENOMA, CARCINOMA, INTEGUMENTARY SYSTEM (SUBCUTANEOU, Tumor Site: Type of Lesion: SPLEEN: HEMANGIOSARCOMA, ADRENAL GLAND: PHEOCHROMOCYTOMA, CORTICAL ADENOMA, CARCINOMA, INTEGUMENTARY SYSTEM (SUBCUTANEOU): active; positive
